Source: the supplement of paper PMC10307832

Key:
Experiment in all cases: relative viability (nuclei count vs DMSO), 5 days (fraction); higher = more cells survive
NCI-H650 = tested on: NCI-H650
Outline: (§1)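 Nuclei were stained with Hoechst during a one-step fixation (final 0.05% Triton X-100, 1% formaldehyde, 1 ug/ml Hoechst) carried out 5 days after dosing, then counted on 4× images. The cells, lung cancer lines in 1536-well plates, had been dosed by pin tool the day after seeding with one drug alone or a fixed anchor-drug dose plus five library-drug doses (not always all listed) in √10 steps. Relative viability is the nuclei count in treated wells divided by that in vehicle wells, and each value is the median of duplicate plates.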

HCC-827 = tested on: HCC-827
Outline: as §1

SK-MES-1 = tested on: SK-MES-1
Outline: as §1

NCI-H596 = tested on: NCI-H596
Outline: as §1

HCC-44 = tested on: HCC-44
Outline: as §1

NCI-H1437 = tested on: NCI-H1437
Outline: as §1

NCI-H441 = tested on: NCI-H441
Outline: as §1

NCI-H358 = tested on: NCI-H358
Outline: as §1

HCC-15 = tested on: HCC-15
Outline: as §1

A-427 = tested on: A-427
Outline: as §1

NCI-H1650 = tested on: NCI-H1650
Outline: as §1

HARA = tested on: HARA
Outline: as §1

NCI-H1975 = tested on: NCI-H1975
Outline: as §1

COR-L23 = tested on: COR-L23
Outline: as §1

NCI-H23 = tested on: NCI-H23
Outline: as §1

201T = tested on: 201T
Outline: as §1

NCI-H2342 = tested on: NCI-H2342
Outline: as §1

EKVX = tested on: EKVX
Outline: as §1

SW 900 = tested on: SW 900
Outline: as §1

NCI-H1792 = tested on: NCI-H1792
Outline: as §1

BEN = tested on: BEN
Outline: as §1

NCI-H838 = tested on: NCI-H838
Outline: as §1

## CC(=O)O[C@@]12CO[C@@H]1C[C@H](O)[C@@]1(C)C(=O)[C@H](O)C3=C(C)[C@@H](OC(=O)[C@H](O)[C@@H](NC(=O)OC(C)(C)C)c4ccccc4)C[C@@](O)([C@@H](OC(=O)c4ccccc4)[C@H]21)C3(C)C [Docetaxel] + O=C(c1cc(Cc2n[nH]c(=O)c3ccccc23)ccc1F)N1CCN(C(=O)C2CC2)CC1 [Olaparib] (partner 8 µM)
NCI-H650; first compound 0.0002 µM
  relative viability: 0.361
NCI-H650; first compound 0.000632 µM
  relative viability: 0.292
NCI-H650; first compound 0.002 µM
  relative viability: 0.192
NCI-H650; first compound 0.006325 µM
  relative viability: 0.189
NCI-H650; first compound 0.02 µM
  relative viability: 0.148
HCC-827; first compound 0.0002 µM
  relative viability: 0.626
HCC-827; first compound 0.000632 µM
  relative viability: 0.662
HCC-827; first compound 0.002 µM
  relative viability: 0.329
HCC-827; first compound 0.006325 µM
  relative viability: 0.287
HCC-827; first compound 0.02 µM
  relative viability: 0.23
SK-MES-1; first compound 0.0002 µM
  relative viability: 0.719
SK-MES-1; first compound 0.000632 µM
  relative viability: 0.405
SK-MES-1; first compound 0.002 µM
  relative viability: 0.354
SK-MES-1; first compound 0.02 µM
  relative viability: 0.145
NCI-H596; first compound 0.0002 µM
  relative viability: 0.685
NCI-H596; first compound 0.000632 µM
  relative viability: 0.83
NCI-H596; first compound 0.002 µM
  relative viability: 0.638
NCI-H596; first compound 0.006325 µM
  relative viability: 0.418
NCI-H596; first compound 0.02 µM
  relative viability: 0.338
HCC-44; first compound 0.0002 µM
  relative viability: 0.978
HCC-44; first compound 0.000632 µM
  relative viability: 0.954
HCC-44; first compound 0.002 µM
  relative viability: 0.908
HCC-44; first compound 0.006325 µM
  relative viability: 0.682
HCC-44; first compound 0.02 µM
  relative viability: 0.616
NCI-H1437; first compound 0.0002 µM
  relative viability: 0.613
NCI-H1437; first compound 0.000632 µM
  relative viability: 0.442
NCI-H1437; first compound 0.002 µM
  relative viability: 0.384
NCI-H1437; first compound 0.006325 µM
  relative viability: 0.269
NCI-H1437; first compound 0.02 µM
  relative viability: 0.177
NCI-H441; first compound 0.0002 µM
  relative viability: 0.446
NCI-H441; first compound 0.000632 µM
  relative viability: 0.324
NCI-H441; first compound 0.002 µM
  relative viability: 0.223
NCI-H441; first compound 0.006325 µM
  relative viability: 0.158
NCI-H441; first compound 0.02 µM
  relative viability: 0.161
NCI-H358; first compound 0.0002 µM
  relative viability: 0.551
NCI-H358; first compound 0.000632 µM
  relative viability: 0.251
NCI-H358; first compound 0.002 µM
  relative viability: 0.136
NCI-H358; first compound 0.006325 µM
  relative viability: 0.147
NCI-H358; first compound 0.02 µM
  relative viability: 0.095
HCC-15; first compound 0.0002 µM
  relative viability: 0.72
HCC-15; first compound 0.000632 µM
  relative viability: 0.382
HCC-15; first compound 0.002 µM
  relative viability: 0.281
HCC-15; first compound 0.02 µM
  relative viability: 0.175
A-427; first compound 0.0002 µM
  relative viability: 0.662
A-427; first compound 0.000632 µM
  relative viability: 0.704
A-427; first compound 0.002 µM
  relative viability: 0.538
A-427; first compound 0.006325 µM
  relative viability: 0.292
A-427; first compound 0.02 µM
  relative viability: 0.198
NCI-H1650; first compound 0.0002 µM
  relative viability: 0.64
NCI-H1650; first compound 0.000632 µM
  relative viability: 0.545
NCI-H1650; first compound 0.002 µM
  relative viability: 0.218
NCI-H1650; first compound 0.006325 µM
  relative viability: 0.241
NCI-H1650; first compound 0.02 µM
  relative viability: 0.162
HARA; first compound 0.0002 µM
  relative viability: 0.858
HARA; first compound 0.000632 µM
  relative viability: 0.335
HARA; first compound 0.002 µM
  relative viability: 0.161
HARA; first compound 0.006325 µM
  relative viability: 0.21
HARA; first compound 0.02 µM
  relative viability: 0.0824
NCI-H1975; first compound 0.0002 µM
  relative viability: 0.748
NCI-H1975; first compound 0.000632 µM
  relative viability: 0.448
NCI-H1975; first compound 0.002 µM
  relative viability: 0.239
NCI-H1975; first compound 0.006325 µM
  relative viability: 0.187
NCI-H1975; first compound 0.02 µM
  relative viability: 0.147
COR-L23; first compound 0.0002 µM
  relative viability: 0.307
COR-L23; first compound 0.000632 µM
  relative viability: 0.312
COR-L23; first compound 0.002 µM
  relative viability: 0.161
COR-L23; first compound 0.006325 µM
  relative viability: 0.134
COR-L23; first compound 0.02 µM
  relative viability: 0.0881
NCI-H23; first compound 0.0002 µM
  relative viability: 0.366
NCI-H23; first compound 0.002 µM
  relative viability: 0.221
NCI-H23; first compound 0.006325 µM
  relative viability: 0.164
NCI-H23; first compound 0.02 µM
  relative viability: 0.105
201T; first compound 0.0002 µM
  relative viability: 0.821
201T; first compound 0.000632 µM
  relative viability: 0.774
201T; first compound 0.002 µM
  relative viability: 0.637
201T; first compound 0.006325 µM
  relative viability: 0.432
201T; first compound 0.02 µM
  relative viability: 0.267
NCI-H2342; first compound 0.0002 µM
  relative viability: 0.525
NCI-H2342; first compound 0.000632 µM
  relative viability: 0.456
NCI-H2342; first compound 0.002 µM
  relative viability: 0.312
NCI-H2342; first compound 0.006325 µM
  relative viability: 0.348
NCI-H2342; first compound 0.02 µM
  relative viability: 0.301
EKVX; first compound 0.0002 µM
  relative viability: 0.839
EKVX; first compound 0.000632 µM
  relative viability: 0.557
EKVX; first compound 0.002 µM
  relative viability: 0.387
EKVX; first compound 0.006325 µM
  relative viability: 0.316
EKVX; first compound 0.02 µM
  relative viability: 0.167
SW 900; first compound 0.0002 µM
  relative viability: 0.817
SW 900; first compound 0.000632 µM
  relative viability: 0.353
SW 900; first compound 0.002 µM
  relative viability: 0.281
SW 900; first compound 0.006325 µM
  relative viability: 0.266
SW 900; first compound 0.02 µM
  relative viability: 0.172
NCI-H1792; first compound 0.0002 µM
  relative viability: 0.281
NCI-H1792; first compound 0.000632 µM
  relative viability: 0.306
NCI-H1792; first compound 0.002 µM
  relative viability: 0.0724
NCI-H1792; first compound 0.006325 µM
  relative viability: 0.0761
NCI-H1792; first compound 0.02 µM
  relative viability: 0.0428
BEN; first compound 0.0002 µM
  relative viability: 1.11
BEN; first compound 0.000632 µM
  relative viability: 1.06
BEN; first compound 0.002 µM
  relative viability: 0.514
BEN; first compound 0.006325 µM
  relative viability: 0.357
BEN; first compound 0.02 µM
  relative viability: 0.275
NCI-H838; first compound 0.0002 µM
  relative viability: 0.716
NCI-H838; first compound 0.000632 µM
  relative viability: 0.368
NCI-H838; first compound 0.002 µM
  relative viability: 0.268
NCI-H838; first compound 0.006325 µM
  relative viability: 0.137
NCI-H838; first compound 0.02 µM
  relative viability: 0.106
